The values that follow come from the supplement of paper PMC11061612.

Holding throughout (test): Bliss excess, mean over the matrix (fraction); higher = more synergy
In assay [1] the test system is 8305C (Thyroid Gland Carcinoma). The method, boiled down: (§1)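 Cell lines grown in DMEM/F12 or RPMI with 10% FBS were plated in 1536-well plates and held 24 hours at 37°C, 5% CO2 before 72 hours of exposure to two-drug dose matrices, with DMSO typically at 0.2%. CellTiter-Glo 2.0 luminescence gave viability, which was converted to inhibition. Vehicle wells were set to 0 and blank wells to 1. Combination Emax is the second-highest inhibition in the matrix, and Bliss excess is the observed combination effect minus the expected EA + EB − EA·EB, where EA and EB are the single-agent effects.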

Assay [2] relates to CAL-54 (Kidney Carcinoma). An outline of the steps: as §1
The subject of assay [3] is CAPAN-1 (Pancreatic Carcinoma). The method, boiled down:
as §1

Assay [4] relates to COLO-829 (Melanoma). An outline of the steps: as §1
Assay [5] relates to HARA (Squamous Cell Lung Carcinoma). An outline of the steps:
as §1

For assay [6], the system named is HDLM-2 (Hodgkin's Lymphoma). An outline of the steps: as §1
For assay [7], the system named is HMV-II (Melanoma). An outline of the steps: as §1
Assay [8] has as its system HO-1-u-1 (Oral Cavity Carcinoma). An outline of the steps:
as §1

Assay [9] concerns Hs-633T (Other Solid Carcinomas). An outline of the steps: as §1
In assay [10] the test system is K5 (Thyroid Gland Carcinoma). The method, boiled down: as §1
Assay [11] concerns KARPAS-231 (B-Cell Non-Hodgkin's Lymphoma). An outline of the steps:
as §1

The subject of assay [12] is MDA-MB-468 (Breast Carcinoma). The method, boiled down:
as §1

Assay [13] deals with Mewo (Melanoma). An outline of the steps:
as §1

In assay [14] the test system is NCI-H2461 (Mesothelioma). The method, boiled down:
as §1

In assay [15] the test system is NCI-H69 (Small Cell Lung Carcinoma). The method, boiled down: as §1
The subject of assay [16] is RPMI-6666 (Non-Cancerous). An outline of the steps:
as §1

The subject of assay [17] is SK-OV-3 (Ovarian Carcinoma). An outline of the steps:
as §1

For assay [18], the system named is SU-DHL-6 (B-Cell Non-Hodgkin's Lymphoma). An outline of the steps:
as §1

In assay [19] the test system is SUP-T1 (T-Lymphoblastic Leukemia). An outline of the steps:
as §1

Assay [20] relates to SW1116 (Colorectal Carcinoma). An outline of the steps: as §1

`Cc1cc2ncnn2cc1Nc1ncc2c(n1)n(C1CCOCC1)c(=O)n2C` [AZD7648] + CCN(CCO)CCCOc1ccc2c(Nc3cc(CC(=O)Nc4cccc(F)c4)[nH]n3)ncnc2c1 [AZD2811] (first compound max 10 µM, 7x7, partner max 1 µM): the Bliss excess in [1] is -0.0159; in [2] it was 0.0156; in [3], -0.0304; in assay [4] it was -0.0034; in assay [5], 0.017; in assay [6], -0.0457. In addition, the Bliss excess was -0.0368 in [7]; 0.0258 in assay [8]; 0.0211 in assay [9]; 0.0013 in assay [10]; -0.0041 in assay [11]; -0.0442 in assay [12]. Also, the Bliss excess in assay [13] is 0.0082; in assay [14], -0.0105; in assay [15], 0.0296; in [16], 0.036; in assay [17] it was -0.0193; in [18], 0.0052. Further, the Bliss excess was 0.11 in [19] and 0.012 in assay [20].

For the compound `CN(C)CCCOc1ccc(-c2ccc3ncc4c(c3c2)n(C2CCOCC2)c(=O)n4C)cn1` [AZD0156] + C=CCn1c(=O)c2cnc(Nc3ccc(N4CCN(C)CC4)cc3)nc2n1-c1cccc(C(C)(C)O)n1 [AZD1775] (first compound max 1 µM, partner max 1 µM), the Bliss excess was 0.012 in [1]; -0.043 in assay [2]; -0.0768 in assay [3]; -0.0486 in [4]; -0.007 in assay [5]; -0.0554 in assay [6]. Besides, the Bliss excess in assay [7] is -0.0182; in [8] it was 0.0563; in assay [9] it was -0.007; in [10], -0.0003; in assay [11] it was 0.0355; in assay [12], -0.0449. The Bliss excess in [13] is -0.05; in assay [14], -0.0451; in [15], -0.129; in [16] it was -0.009; in [17], -0.0433; in [18], -0.0384. The Bliss excess in assay [19] was -0.0251; in [20], -0.0336.

`Cc1c2c(nn1C)CSCc1cc(n(C)n1)CSc1cc(c3ccccc3c1)OCCCc1c(C(=O)O)n(C)c3c-2c(Cl)ccc13` [AZD5991] + Cn1cnc2c(F)c(Nc3ccc(Br)cc3Cl)c(C(=O)NOCCO)cc21 [Selumetinib] (first compound max 1 µM, 7x7, partner max 3 µM): the Bliss excess in assay [1] was -0.0511; in [2] it was 0.0203; in assay [3], -0.0269; in [4] it was 0.0295; in assay [5], -0.0263; in assay [6], -0.0477. The Bliss excess in assay [7] is 0.0066; in [8], 0.0168; in assay [9], 0.0542; in assay [10], -0.0216; in [11], -0.0645; in assay [12] it was -0.0389. Further, the Bliss excess was -0.0417 in [13]; -0.0131 in [14]; -0.065 in assay [15]; 0.0387 in assay [16]; -0.0597 in assay [17]; 0.0071 in assay [18]. Also, the Bliss excess in assay [19] is -0.0246; in [20], -0.032.

`Cc1cc2ncnn2cc1Nc1ncc2c(n1)n(C1CCOCC1)c(=O)n2C` [AZD7648] + C=CCn1c(=O)c2cnc(Nc3ccc(N4CCN(C)CC4)cc3)nc2n1-c1cccc(C(C)(C)O)n1 [AZD1775] (first compound max 10 µM, partner max 1 µM): the Bliss excess is -0.0825 in assay [1]; 0.016 in assay [2]; 0.0049 in [3]; -0.0047 in assay [4]; -0.0542 in assay [5]; -0.0387 in assay [6]. The Bliss excess in assay [7] is -0.0714; in assay [8], 0.0946; in assay [9], -0.0333; in assay [10], 0.0433; in [11] it was -0.0309; in [12], -0.0044. Moreover, the Bliss excess in assay [13] is 0.0455; in [14], -0.0524; in assay [15], -0.118; in [16], -0.0687; in assay [17] it was -0.0663; in assay [18] it was -0.0816. The Bliss excess in [19] was 0.0169; in assay [20] it was -0.0172.

Take `NC1(C(=O)N[C@@H](CCO)c2ccc(Cl)cc2)CCN(c2ncnc3[nH]ccc23)CC1` [Capivasertib] + CCN(CCO)CCCOc1ccc2c(Nc3cc(CC(=O)Nc4cccc(F)c4)[nH]n3)ncnc2c1 [AZD2811] (first compound max 10 µM, 7x7, partner max 1 µM): the Bliss excess is 0.0022 in assay [1]; -0.0357 in assay [2]; -0.0486 in assay [3]; 0.0142 in assay [4]; 0.0137 in assay [5]; 0.0228 in assay [6]. Further, the Bliss excess in assay [7] was -0.0457; in assay [8] it was -0.0122; in assay [9], 0.0136; in assay [10] it was -0.0379; in [11], -0.111; in assay [12], -0.063. Moreover, the Bliss excess in [13] is 0.0228; in assay [14], -0.0811; in [15] it was 0.0132; in assay [16], -0.133; in assay [17], -0.0301; in assay [18], 0.0406. The Bliss excess is 0.0016 in assay [19] and -0.0435 in [20].

Consider `Cc1c2c(nn1C)CSCc1cc(n(C)n1)CSc1cc(c3ccccc3c1)OCCCc1c(C(=O)O)n(C)c3c-2c(Cl)ccc13` [AZD5991] + C[C@@H]1COCCN1C2=NC(=NC(=C2)C3(CC3)[S@](=N)(=O)C)C4=C5C=CNC5=NC=C4 [AZD6738] (first compound max 1 µM, 7x7, partner max 10 µM), for which the Bliss excess in assay [1] was -0.0605; in [2] it was -0.0259; in assay [3], -0.0167; in [4], 0.0471; in [5] it was -0.0283; in assay [6], -0.0291. Also, the Bliss excess in assay [7] is -0.0496; in assay [8], -0.0074; in assay [9], 0.0184; in assay [10], 0.0076; in [11] it was 0.0252; in assay [12] it was 0.0455. Moreover, the Bliss excess in assay [13] was -0.0329; in [14], 0.0016; in [15] it was -0.0477; in [16], 0.0272; in assay [17], 0.0538; in assay [18], -0.0137. Further, the Bliss excess in [19] is -0.024; in [20], 0.0515.
